Experiments:
[1] = test system: 24(OH)ase; experiment: effect of drugs on the expression of 24(OH)ase; format: cell-based; details: compared with calcitriol
Experimental: Two observations may be noted in these studies: (1) 100% inhibition of growth was never achieved even at 1 μM of any of the test compound. Confocal microscopy studies confirm that, although these drugs are potent in inducing the translocation of VDR from cytoplasm to nucleus, not all cells respond to VDRAs even after 2 h of exposure, which may explain the <100% inhibition.

[2] = test system: renin mRNA expression; experiment: Northern blot analysis of renin mRNA expression in As4.1-hVDR cells; format: cell-based
Excerpt: (§1) Using an in vitro cell culture system, the activity of paricalcitol to suppress renin gene expression was examined using previously published techniques (1,25-Dihydroxyvitamin D3 is a negative endocrine regulator of the renin-angiotensin system, J. Clin. Invest., July 2002). […] This inhibitory effect is confirmed by renin promoter-luciferase reporter assays, which examine the activity of paricalcitol to suppress renin gene transcription.

[3] = test system: renin gene promoter; experiment: renin promoter-luciferase reporter assay; format: cell-based; details: FIG. 2
Excerpt: as §1

[4] = test system: PAI-1; experiment: Western blot of PAI-1 in primary culture of human coronary artery smooth muscle cells; format: cell-based; details: 24 hr at 37° C.
[5] = test system: CKD Stage 3 and 4 patients; experiment: dipstick proteinuria in three randomized, double-blind, placebo-controlled studies in CKD Stage 3 and 4 patients with SHPT; format: in vivo, human
Experimental: Paricalcitol capsule, a synthetic 3rd generation vitamin D analog, and selective vitamin receptor activator (SVDRA) was evaluated in three randomized, double-blind, placebo-controlled, multicenter studies in CKD Stage 3 and 4 patients with SHPT. Two studies dosed three times a week(TIW), no more often than every other day, and 1 study was conducted with once a day dosing regimen (QD). Data from these three studies were combined and analyzed for the following safety parameters: • Calcium and phosphorus metabolism, kidney function parameters and adverse event profile • Changes in dipstick proteinuria Method: • Randomized, double-blind, placebo controlled, multicenter studies with a Pre-treatment/Washout Phase of 1-4 weeks and a Treatment Phase of 24 weeks • Patients were randomized 1:1 to paricalcitol or placebo • Major entry criteria: • Age≧18 years • CKD patients with eGFR (MDRD formula) 15-60 mL/min/1.73 m^2 • Average of the last 2 iPTH values≧150 pg/mL, all values≧120 pg/mL (iPTH measured by Nichols first generation intact PTH assay) • 2 consecutive serum calcium values between 8.0-10.0 mg/dL, and 2 consecutive serum phosphorus values≦5.2 mg/dL • Spot urinary calcium-to-creatinine ratio<0.2 • Not taking maintenance calcitonin, bisphosphonates or drugs that may affect calcium or bone metabolism. • Not taking glucocorticoids for >14 days within the last 6 months. Concurrent Phosphate Binder Usage
Initial Dose: 2 or 4 mcg for TIW regimen and 1 or 2 mcg for QD regimen
Dose Increment: 2 mcg for TIW regimen and 1 mcg for QD regimen
Dose increases every 4 weeks, dose decreases every 2 weeks or sooner
Changes in proteinuria, measured by automated semiquantitative dipstick testing, were evaluated in 195 CKD Stage 3 and 4 patients. Among them, 43.6% (41/94) of paricalcitol patients and 48.5% (49/101) of placebo patients were diabetic.

[6] = test system: renin gene expression; details: in vitro and in vivo studies, recently found; cited from earlier work

| suppression of the activity of the renin gene promoter compared with calcitriol [3] | patients who experienced an increase in proteinuria, baseline to final visit ([5]; patients who could have an increase in proteinuria from baseline (18/76), placebo 29% (23/77), p=0.466) [%] | Structure (SMILES) | potency on stimulating the expression of 24(OH)ase [1] | renin mRNA expression ([2]; FIG. 1) | renin-inhibiting activity compared with calcitriol ([2]; FIGS. 1A and B) | PAI-1 level [4] | potency in reducing the PAI-1 level [4] | patients who had a decrease in proteinuria ([5]; patients on ACEI/ARB therapy with proteinuria at baseline (22/42), placebo 27% (11/41), p=0.025) [%] | patients who experienced a reduction in proteinuria, baseline to final visit ([5]; patients who had proteinuria at baseline (29/57), placebo 25% (15/61), p=0.004, 24 weeks treatment) [%] | renin gene expression [6] |
| --- | --- | --- | --- | --- | --- | --- | --- | --- | --- | --- |
| at least as potent as calcitriol | 24 | C[C@H](/C=C/[C@H](C)C(C)(C)O)[C@H]1CC[C@H]2/C(=C/C=C3C[C@@H](O)C[C@H](O)C3)CCC[C@]12C [paricalcitol] | less potent than calcitriol | dose-dependently inhibits renin mRNA expression | a bit more potent than calcitriol | able to decrease PAI-1 level | equally potent | 52 | 51 | – |
| – | – | C=C1/C(=C\C=C2/CCC[C@]3(C)[C@@H]([C@H](C)CCCC(C)(C)O)CC[C@@H]23)C[C@@H](O)C[C@@H]1O [calcitriol] | – | – | – | – | equally potent | – | – | able to inhibit renin gene expression |
